Values of other authors as cited in US20060153842A1, “Immunosuppressive combination and its use in the treatment or prophylaxis or insulin-producing cell graft rejection” (priority 2001, published 2006).

Tested on: islet allograft in male rats
Conditions: male rats hyperglycemic with streptozotocin; pre-administration the day before and the day of grafting

Compound: CCCCCCCCc1ccc(CCC(N)(CO)CO)cc1 [FTY720, 2-amino-2-[2-(4-octylphenyl)ethyl]propane-1,3-diol]
- prolonged islet allograft survival: up to 20 days
